From US12498382B2, “Biomarkers for vitiligo” (INCYTE CORPORATION, priority 2019, dated 2025)

Test system: HaCaT cells
Experiment: Concentrations of inflammatory mediators produced by HaCaT cells stimulated with TNFα and IFNγ in presence/absence of JAK inhibitors (ProCarta)
Assay type: cell-based, human
Method in brief: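 HaCaT cells pre-treated 15 min with JAK inhibitors, then stimulated with TNFα and IFNγ (25 ng/mL each) at drug finals of 25, 50, 100 and 200 nM for 24 h at 37 °C. Secreted mediators in media measured by Luminex bead immunoassay; concentrations (pg/mL) from antigen standard curves.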

[1] = TNFα+IFNγ 25 ng/mL each, drug conc. 1st of 4 rows (cell not shown; prob. 25 nM)
[2] = TNFα+IFNγ 25 ng/mL each, drug conc. 2nd of 4 rows (cell not shown; prob. 50 nM)
[3] = TNFα+IFNγ 25 ng/mL each, drug conc. 3rd of 4 rows (cell not shown; prob. 100 nM)
[4] = TNFα+IFNγ 25 ng/mL each, drug conc. 4th of 4 rows (cell not shown; prob. 200 nM)
[5] = drug present, concentration not given

C[C@@H](O)c1nc2cnc3ccsc3c2n1[C@H]1CC[C@H](CC#N)OC1 [Cpd D, ((2R,5S)-5-{2-[(1R)-1-hydroxyethyl]-1H-imidazo[4,5-d]thieno[3,2-b]pyridin-1-yl}tetrahydro-2H-pyran-2-yl)acetonitrile]
IFN gamma concentration [1]: 24180.78 ± 2901.94 pg/mL | IL1RA concentration [1]: 5760.33 ± 367.09 pg/mL | IL1 alpha concentration [1]: 6.8 ± 0.39 pg/mL | IL1 beta concentration [1]: 8.92 ± 0.42 pg/mL | IL2 concentration [1]: 31.46 ± 1.56 pg/mL | IL4 concentration [1]: 7.2 ± 1.25 pg/mL | IL5 concentration [1]: 26.66 ± 1.72 pg/mL | IL6 concentration [1]: 743.07 ± 36.3 pg/mL | IL7 concentration [1]: 2.16 ± 0.11 pg/mL | IL8 concentration [1]: 2820.21 ± 159.05 pg/mL | IL9 concentration [1]: 3.7 ± 0^ pg/mL | IL10 concentration [1]: 0.76 ± 0.08 pg/mL | IL12p70 concentration [1]: 1.88 ± 0.19 pg/mL | IL13 concentration [1]: 2.67 ± 0.24 pg/mL | IL15 concentration [1]: 4.2 ± 0.86 pg/mL | IL17A concentration [1]: 3.84 ± 0.3 pg/mL | IL18 concentration [1]: 159.38 ± 4.31 pg/mL | IL21 concentration [1]: 2.71 ± 0.18 pg/mL | IL22 concentration [1]: 7.83 ± 0.75 pg/mL | IL23 concentration [1]: 7.43 ± 0 pg/mL | IL27 concentration [1]: 7.42 ± 0.9 pg/mL | IL31 concentration [1]: 2.97 ± 0.37 pg/mL | IP-10/CXCL10 concentration [1]: 3903.67 ± 366.97 pg/mL | LIF concentration [1]: 65.71 ± 2.6 pg/mL | MCP1 concentration [1]: 21968.74 ± 4662.32 pg/mL | MIP1 alpha concentration [1]: 102.06 ± 4.18 pg/mL | MIP1 beta concentration [1]: 313.64 ± 8.9 pg/mL | PDGF-BB concentration [1]: 4.23 ± 0.18 pg/mL | PIGF-1 concentration [1]: 59.56 ± 3.2 pg/mL | RANTES concentration [1]: 237.57 ± 17.46 pg/mL | SCF concentration [1]: 4.18 ± 0.24 pg/mL | SDF-1 alpha concentration [1]: 3456.41 ± 158.06 pg/mL | TNF alpha concentration [1]: 8951.15 ± 870.67 pg/mL | TNF beta concentration [1]: 4.62 ± 0.49 pg/mL | VEGF-A concentration [1]: 1303.84 ± 56.86 pg/mL | VEGF-D concentration [1]: 8.7 ± 0.52 pg/mL | IFN gamma concentration [2]: 25506.14 ± 3960.86 pg/mL | IL1RA concentration [2]: 5709.52 ± 391.3 pg/mL | IL1 alpha concentration [2]: 6.76 ± 0.4 pg/mL | IL1 beta concentration [2]: 8.82 ± 0.46 pg/mL | IL2 concentration [2]: 29.16 ± 2.01 pg/mL | IL4 concentration [2]: 5.9 ± 1.18 pg/mL | IL5 concentration [2]: 28.49 ± 1.85 pg/mL | IL6 concentration [2]: 698.04 ± 29.79 pg/mL | IL7 concentration [2]: 2.14 ± 0.07 pg/mL | IL8 concentration [2]: 2907.08 ± 193.16 pg/mL | IL9 concentration [2]: 3.37 ± 0.33 pg/mL | IL10 concentration [2]: 0.67 ± 0.07 pg/mL | IL12p70 concentration [2]: 1.69 ± 0.19 pg/mL | IL13 concentration [2]: 2.21 ± 0.27 pg/mL | IL15 concentration [2]: 2.82 ± 0.72 pg/mL | IL17A concentration [2]: 4.15 ± 0.57 pg/mL | IL18 concentration [2]: 156.12 ± 3.47 pg/mL | IL21 concentration [2]: 2.13 ± 0.39 pg/mL | IL22 concentration [2]: 8.9 ± 0^ pg/mL | IL23 concentration [2]: 7.43 ± 0 pg/mL | IL27 concentration [2]: 5.51 ± 1.25 pg/mL | IL31 concentration [2]: 3.43 ± 0.31 pg/mL | IP-10/CXCL10 concentration [2]: 3998.62 ± 456.34 pg/mL | LIF concentration [2]: 66.01 ± 3.21 pg/mL | MCP1 concentration [2]: 25836.84 ± 10636.84 pg/mL | MIP1 alpha concentration [2]: 96.35 ± 3.57 pg/mL | MIP1 beta concentration [2]: 316.87 ± 10.18 pg/mL | PDGF-BB concentration [2]: 4.36 ± 0.18 pg/mL | PIGF-1 concentration [2]: 56.72 ± 3.48 pg/mL | RANTES concentration [2]: 237.55 ± 21.78 pg/mL | SCF concentration [2]: 4.1 ± 0.21 pg/mL | SDF-1 alpha concentration [2]: 3450.69 ± 158.13 pg/mL | TNF alpha concentration [2]: 9862.6 ± 1041^ pg/mL | TNF beta concentration [2]: 5.03 ± 0.38 pg/mL | VEGF-A concentration [2]: 1286.84 ± 61.29 pg/mL | VEGF-D concentration [2]: 8.49 ± 0.72 pg/mL | IFN gamma concentration [3]: 29392.77 ± 4832.25 pg/mL | IL1RA concentration [3]: 5879.83 ± 410.09 pg/mL | IL1 alpha concentration [3]: 6.92 ± 0.4 pg/mL | IL1 beta concentration [3]: 8.63 ± 0.36 pg/mL | IL2 concentration [3]: 29.23 ± 1.62 pg/mL | IL4 concentration [3]: 5.13 ± 0.78 pg/mL | IL5 concentration [3]: 27.43 ± 2.11 pg/mL | IL6 concentration [3]: 703.99 ± 42.22 pg/mL | IL7 concentration [3]: 2.15 ± 0.14 pg/mL | IL8 concentration [3]: 3061.2 ± 217.26 pg/mL | IL9 concentration [3]: 3.58 ± 0.24 pg/mL | IL10 concentration [3]: 0.81 ± 0.07 pg/mL | IL12p70 concentration [3]: 1.75 ± 0.22 pg/mL | IL13 concentration [3]: 2.98 ± 0.4 pg/mL | IL15 concentration [3]: 3.29 ± 0.9 pg/mL | IL17A concentration [3]: 3.57 ± 0.45 pg/mL | IL18 concentration [3]: 156.97 ± 5.2 pg/mL | IL21 concentration [3]: 2.64 ± 0.24 pg/mL | IL22 concentration [3]: 8.21 ± 0.69 pg/mL | IL23 concentration [3]: 7.43 ± 0 pg/mL | IL27 concentration [3]: 5.92 ± 0.88 pg/mL | IL31 concentration [3]: 4.14 ± 0.48 pg/mL | IP-10/CXCL10 concentration [3]: 4100.26 ± 502.48 pg/mL | LIF concentration [3]: 70.02 ± 3.89 pg/mL | MCP1 concentration [3]: 15200 ± 0 pg/mL | MIP1 alpha concentration [3]: 96.22 ± 3.58 pg/mL | MIP1 beta concentration [3]: 317.95 ± 8.1 pg/mL | PDGF-BB concentration [3]: 4.71 ± 0.23 pg/mL | PIGF-1 concentration [3]: 59.49 ± 3.52 pg/mL | RANTES concentration [3]: 241.39 ± 22.79 pg/mL | SCF concentration [3]: 4.29 ± 0.29 pg/mL | SDF-1 alpha concentration [3]: 3563.68 ± 157.35 pg/mL | TNF alpha concentration [3]: 10525.46 ± 1077.11 pg/mL | TNF beta concentration [3]: 4.47 ± 0.37 pg/mL | VEGF-A concentration [3]: 1346.72 ± 67.56 pg/mL | VEGF-D concentration [3]: 9.64 ± 0.91 pg/mL | IFN gamma concentration [4]: 26972.77 ± 4164.13 pg/mL | IL1RA concentration [4]: 5450.17 ± 388.11 pg/mL | IL1 alpha concentration [4]: 6.3 ± 0.35 pg/mL | IL1 beta concentration [4]: 8.81 ± 0.35 pg/mL | IL2 concentration [4]: 31.88 ± 1.61 pg/mL | IL4 concentration [4]: 8.19 ± 1.39 pg/mL | IL5 concentration [4]: 25.61 ± 1.98 pg/mL | IL6 concentration [4]: 646.2 ± 32.46 pg/mL | IL7 concentration [4]: 2.14 ± 0.12 pg/mL | IL8 concentration [4]: 2893.51 ± 190.51 pg/mL | IL9 concentration [4]: 4.44 ± 0.54 pg/mL | IL10 concentration [4]: 0.84 ± 0.08 pg/mL | IL12p70 concentration [4]: 1.7 ± 0.2 pg/mL | IL13 concentration [4]: 2.52 ± 0.42 pg/mL | IL15 concentration [4]: 3.37 ± 0.8 pg/mL | IL17A concentration [4]: 4.04 ± 0.49 pg/mL | IL18 concentration [4]: 155.77 ± 4.15 pg/mL | IL21 concentration [4]: 2.84 ± 0.04 pg/mL | IL22 concentration [4]: 8.39 ± 0.51 pg/mL | IL23 concentration [4]: 7.43 ± 0 pg/mL | IL27 concentration [4]: 8.3 ± 1.2 pg/mL | IL31 concentration [4]: 3.05 ± 0.38 pg/mL | IP-10/CXCL10 concentration [4]: 4407.56 ± 645.63 pg/mL | LIF concentration [4]: 67.62 ± 3.58 pg/mL | MCP1 concentration [4]: 18512.1 ± 3312.1 pg/mL | MIP1 alpha concentration [4]: 88.49 ± 5.06 pg/mL | MIP1 beta concentration [4]: 316.74 ± 9.29 pg/mL | PDGF-BB concentration [4]: 4.75 ± 0.16 pg/mL | PIGF-1 concentration [4]: 55.63 ± 3.23 pg/mL | RANTES concentration [4]: 238.51 ± 23.12 pg/mL | SCF concentration [4]: 4.07 ± 0.21 pg/mL | SDF-1 alpha concentration [4]: 3464.97 ± 155.2 pg/mL | TNF alpha concentration [4]: 9777.73 ± 966.87 pg/mL | TNF beta concentration [4]: 4.96 ± 0.56 pg/mL | VEGF-A concentration [4]: 1256.89 ± 60.57 pg/mL | VEGF-D concentration [4]: 8.03 ± 0.93 pg/mL | IL1 alpha concentration [5]: 0.26 ± 0.05 pg/mL | IL1 beta concentration [5]: 0.98 ± 0.12 pg/mL | IL2 concentration [5]: 2.4 ± 0.09 pg/mL | IL4 concentration [5]: 5.34 ± 0.89 pg/mL | IL5 concentration [5]: 2.88 ± 0.36 pg/mL | IL6 concentration [5]: 28.84 ± 1.89 pg/mL | IL7 concentration [5]: 3.44 ± 0.16 pg/mL | IL8 concentration [5]: 257.62 ± 7.07 pg/mL | IL9 concentration [5]: 3.98 ± 0.36 pg/mL | IL10 concentration [5]: 0.43 ± 0.11 pg/mL | IL12p70 concentration [5]: 2.15 ± 0.26 pg/mL | IL13 concentration [5]: 1.26 ± 0.15 pg/mL | IL15 concentration [5]: 3.2 ± 0.71 pg/mL | IL17A concentration [5]: 1.22 ± 0.2 pg/mL | IL18 concentration [5]: 6.54 ± 0.37 pg/mL | IL21 concentration [5]: 2.5 ± 0.3 pg/mL | IL22 concentration [5]: 8.08 ± 0.82 pg/mL | IL23 concentration [5]: 6.43 ± 1.28 pg/mL | IL27 concentration [5]: 11.9 ± 2.31 pg/mL | IL31 concentration [5]: 3.7 ± 0.06 pg/mL | IP-10/CXCL10 concentration [5]: 20.23 ± 0.48 pg/mL | LIF concentration [5]: 22.66 ± 0.82 pg/mL | MCP1 concentration [5]: 1306.83 ± 54.65 pg/mL | MIP1 alpha concentration [5]: 2.75 ± 0.26 pg/mL | MIP1 beta concentration [5]: 113.08 ± 4.82 pg/mL | PDGF-BB concentration [5]: 1.93 ± 0.18 pg/mL | PIGF-1 concentration [5]: 20.55 ± 1.16 pg/mL | RANTES concentration [5]: 10.17 ± 0.54 pg/mL | SCF concentration [5]: 1.91 ± 0.15 pg/mL | SDF-1 alpha concentration [5]: 990.69 ± 48.87 pg/mL | TNF alpha concentration [5]: 2.41 ± 0.7 pg/mL | TNF beta concentration [5]: 4.42 ± 0.57 pg/mL | VEGF-A concentration [5]: 598.11 ± 16.67 pg/mL | VEGF-D concentration [5]: 3.55 ± 0.66 pg/mL
